Measured values reported in ChEMBL document CHEMBL5303765, “Data for DCP probe BAY-7081” (2023).
Activity calls are given as the source filed them. The calls are words filed in the database; no cut-off is given here.

What was measured:
[1] = biological target: High affinity cGMP-specific 3',5'-cyclic phosphodiesterase 9A (Homo sapiens, UniProt O76083); assay: 3H-cAMP and 3H-cGMP Scintillation Proximity Assay (PDE9A)
[2] = biological target: Calcium/calmodulin-dependent protein kinase type 1D (Homo sapiens) (UniProt Q8IU85); assay: CAMK1D SGC Tm panel (DSF); details: for ΔTm: Compound concentration 10.0 uM
[3] = biological target: Mitogen-activated protein kinase 1 (Homo sapiens) (UniProt P28482); assay: MAPK1 SGC Tm panel (DSF); details: for ΔTm: Compound concentration 10.0 uM
[4] = biological target: Ribosomal protein S6 kinase alpha-1 (Homo sapiens) (UniProt Q15418); assay: RPS6KA1 SGC Tm panel (DSF); details: for ΔTm: Compound concentration 10.0 uM
[5] = biological target: T1, Serine/threonine-protein kinase ULK1 (Homo sapiens) (UniProt O75385); assay: ULK1 SGC Tm panel (DSF); details: for ΔTm: Compound concentration 10.0 uM
T1 sequence (whole entry): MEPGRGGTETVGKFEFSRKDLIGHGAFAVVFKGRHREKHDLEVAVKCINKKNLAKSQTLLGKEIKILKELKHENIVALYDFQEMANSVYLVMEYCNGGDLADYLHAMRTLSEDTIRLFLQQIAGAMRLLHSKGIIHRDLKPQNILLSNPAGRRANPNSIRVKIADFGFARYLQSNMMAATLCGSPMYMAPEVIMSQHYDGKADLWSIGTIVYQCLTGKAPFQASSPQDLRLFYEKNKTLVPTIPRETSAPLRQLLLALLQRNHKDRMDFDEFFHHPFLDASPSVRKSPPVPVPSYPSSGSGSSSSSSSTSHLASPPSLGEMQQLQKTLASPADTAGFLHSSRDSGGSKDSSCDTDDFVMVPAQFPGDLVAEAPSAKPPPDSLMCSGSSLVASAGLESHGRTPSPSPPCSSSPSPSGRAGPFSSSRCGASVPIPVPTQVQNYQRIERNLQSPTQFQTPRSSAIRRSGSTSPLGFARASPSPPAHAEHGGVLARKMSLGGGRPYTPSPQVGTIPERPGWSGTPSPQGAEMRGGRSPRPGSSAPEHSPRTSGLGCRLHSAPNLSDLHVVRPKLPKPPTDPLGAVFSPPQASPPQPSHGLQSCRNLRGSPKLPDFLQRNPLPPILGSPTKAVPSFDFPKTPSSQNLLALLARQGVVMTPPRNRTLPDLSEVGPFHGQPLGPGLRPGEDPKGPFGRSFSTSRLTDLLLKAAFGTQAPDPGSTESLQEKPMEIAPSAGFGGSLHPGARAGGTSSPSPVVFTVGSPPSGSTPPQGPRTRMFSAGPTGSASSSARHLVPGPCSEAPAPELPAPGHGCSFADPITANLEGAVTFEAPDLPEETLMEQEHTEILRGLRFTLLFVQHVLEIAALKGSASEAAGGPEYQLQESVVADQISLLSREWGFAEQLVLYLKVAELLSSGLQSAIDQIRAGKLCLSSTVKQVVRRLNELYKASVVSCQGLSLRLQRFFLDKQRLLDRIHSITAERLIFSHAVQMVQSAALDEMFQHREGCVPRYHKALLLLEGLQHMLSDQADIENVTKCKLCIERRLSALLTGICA

[6] = biological target: T2, 5-hydroxytryptamine receptor 1A (Homo sapiens) (UniProt P08908); details: Compound concentration 10.0 uM
T2 sequence (whole entry): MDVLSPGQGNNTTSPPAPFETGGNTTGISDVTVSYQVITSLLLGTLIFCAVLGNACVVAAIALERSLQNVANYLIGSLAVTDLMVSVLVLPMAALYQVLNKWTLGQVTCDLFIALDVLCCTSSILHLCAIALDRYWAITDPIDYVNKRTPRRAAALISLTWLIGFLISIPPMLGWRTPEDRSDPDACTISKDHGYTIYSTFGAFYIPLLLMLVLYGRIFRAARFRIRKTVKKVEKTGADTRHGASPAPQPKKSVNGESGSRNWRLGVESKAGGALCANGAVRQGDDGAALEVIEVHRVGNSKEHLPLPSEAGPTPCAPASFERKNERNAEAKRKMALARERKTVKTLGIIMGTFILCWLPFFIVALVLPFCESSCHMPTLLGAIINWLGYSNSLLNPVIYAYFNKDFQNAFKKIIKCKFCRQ

[7] = biological target: 5-hydroxytryptamine receptor 1B (Homo sapiens) (UniProt P28222); details: Compound concentration 10.0 uM
[8] = biological target: T3, Alpha-2B adrenergic receptor (Homo sapiens) (UniProt P18089); details: Compound concentration 10.0 uM
T3 sequence (whole entry): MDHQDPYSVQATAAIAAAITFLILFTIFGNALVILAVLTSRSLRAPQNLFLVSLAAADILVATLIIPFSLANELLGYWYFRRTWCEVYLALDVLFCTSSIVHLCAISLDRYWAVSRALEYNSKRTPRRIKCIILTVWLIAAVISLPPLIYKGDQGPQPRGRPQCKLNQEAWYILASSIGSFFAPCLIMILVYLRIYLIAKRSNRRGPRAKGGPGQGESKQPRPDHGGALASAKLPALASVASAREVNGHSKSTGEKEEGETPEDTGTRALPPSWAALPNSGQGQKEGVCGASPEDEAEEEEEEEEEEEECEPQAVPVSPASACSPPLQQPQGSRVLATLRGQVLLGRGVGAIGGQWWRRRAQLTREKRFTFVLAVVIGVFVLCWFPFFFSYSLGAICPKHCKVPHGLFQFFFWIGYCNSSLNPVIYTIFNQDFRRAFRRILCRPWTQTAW

Mitogen-activated protein kinase 1 (Homo sapiens), sequence (P28482 whole entry): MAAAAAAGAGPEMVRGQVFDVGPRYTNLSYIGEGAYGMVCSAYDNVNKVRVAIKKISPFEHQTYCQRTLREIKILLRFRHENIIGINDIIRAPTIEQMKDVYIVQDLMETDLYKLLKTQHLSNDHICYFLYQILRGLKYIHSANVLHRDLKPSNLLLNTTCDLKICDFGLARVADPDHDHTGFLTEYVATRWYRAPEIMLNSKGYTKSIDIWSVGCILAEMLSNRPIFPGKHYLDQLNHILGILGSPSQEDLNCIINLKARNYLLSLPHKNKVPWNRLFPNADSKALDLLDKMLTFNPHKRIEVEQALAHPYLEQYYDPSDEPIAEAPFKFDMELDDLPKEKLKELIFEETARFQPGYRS
5-hydroxytryptamine receptor 1B (Homo sapiens), sequence (P28222 whole entry): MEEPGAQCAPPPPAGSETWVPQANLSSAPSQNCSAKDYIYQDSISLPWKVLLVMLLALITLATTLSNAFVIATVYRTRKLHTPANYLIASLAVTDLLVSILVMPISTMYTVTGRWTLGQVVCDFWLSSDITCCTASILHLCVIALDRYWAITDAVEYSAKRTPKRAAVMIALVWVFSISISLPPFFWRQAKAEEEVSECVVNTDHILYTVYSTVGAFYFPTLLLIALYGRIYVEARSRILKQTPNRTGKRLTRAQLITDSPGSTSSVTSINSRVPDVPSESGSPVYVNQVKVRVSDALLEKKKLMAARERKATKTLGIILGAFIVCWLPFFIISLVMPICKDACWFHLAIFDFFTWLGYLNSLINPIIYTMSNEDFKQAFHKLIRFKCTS
Calcium/calmodulin-dependent protein kinase type 1D (Homo sapiens), sequence (Q8IU85 whole entry, looked up): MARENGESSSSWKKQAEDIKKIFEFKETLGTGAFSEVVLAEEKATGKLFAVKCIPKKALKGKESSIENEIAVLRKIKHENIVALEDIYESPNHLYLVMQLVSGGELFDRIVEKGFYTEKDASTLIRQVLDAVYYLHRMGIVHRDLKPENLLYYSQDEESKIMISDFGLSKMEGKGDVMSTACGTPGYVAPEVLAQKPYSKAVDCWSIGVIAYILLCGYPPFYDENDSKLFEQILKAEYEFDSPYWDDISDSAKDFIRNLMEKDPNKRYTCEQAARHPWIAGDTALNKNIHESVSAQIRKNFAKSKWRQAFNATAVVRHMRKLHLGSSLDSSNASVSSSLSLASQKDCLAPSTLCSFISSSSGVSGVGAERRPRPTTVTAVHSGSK
Ribosomal protein S6 kinase alpha-1 (Homo sapiens), sequence (Q15418 whole entry): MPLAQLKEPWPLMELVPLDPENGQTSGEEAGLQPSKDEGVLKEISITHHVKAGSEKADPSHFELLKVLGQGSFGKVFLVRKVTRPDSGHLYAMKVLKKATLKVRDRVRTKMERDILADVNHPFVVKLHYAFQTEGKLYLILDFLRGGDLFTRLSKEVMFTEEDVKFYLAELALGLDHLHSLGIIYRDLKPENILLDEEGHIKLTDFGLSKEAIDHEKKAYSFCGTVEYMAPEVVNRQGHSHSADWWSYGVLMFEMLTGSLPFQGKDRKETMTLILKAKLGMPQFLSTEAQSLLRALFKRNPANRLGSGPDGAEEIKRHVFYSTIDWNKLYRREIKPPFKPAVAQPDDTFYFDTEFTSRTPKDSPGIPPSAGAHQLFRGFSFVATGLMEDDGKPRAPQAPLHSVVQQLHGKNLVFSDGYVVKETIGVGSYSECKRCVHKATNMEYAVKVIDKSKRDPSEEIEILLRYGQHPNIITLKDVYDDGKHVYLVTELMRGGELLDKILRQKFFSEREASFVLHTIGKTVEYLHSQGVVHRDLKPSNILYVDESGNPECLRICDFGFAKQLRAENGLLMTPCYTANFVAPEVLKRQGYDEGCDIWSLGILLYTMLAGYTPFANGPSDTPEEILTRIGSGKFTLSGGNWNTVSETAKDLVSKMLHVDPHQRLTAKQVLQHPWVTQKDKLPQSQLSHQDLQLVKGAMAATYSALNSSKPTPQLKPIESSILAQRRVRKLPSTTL
High affinity cGMP-specific 3',5'-cyclic phosphodiesterase 9A, sequence (O76083 whole entry): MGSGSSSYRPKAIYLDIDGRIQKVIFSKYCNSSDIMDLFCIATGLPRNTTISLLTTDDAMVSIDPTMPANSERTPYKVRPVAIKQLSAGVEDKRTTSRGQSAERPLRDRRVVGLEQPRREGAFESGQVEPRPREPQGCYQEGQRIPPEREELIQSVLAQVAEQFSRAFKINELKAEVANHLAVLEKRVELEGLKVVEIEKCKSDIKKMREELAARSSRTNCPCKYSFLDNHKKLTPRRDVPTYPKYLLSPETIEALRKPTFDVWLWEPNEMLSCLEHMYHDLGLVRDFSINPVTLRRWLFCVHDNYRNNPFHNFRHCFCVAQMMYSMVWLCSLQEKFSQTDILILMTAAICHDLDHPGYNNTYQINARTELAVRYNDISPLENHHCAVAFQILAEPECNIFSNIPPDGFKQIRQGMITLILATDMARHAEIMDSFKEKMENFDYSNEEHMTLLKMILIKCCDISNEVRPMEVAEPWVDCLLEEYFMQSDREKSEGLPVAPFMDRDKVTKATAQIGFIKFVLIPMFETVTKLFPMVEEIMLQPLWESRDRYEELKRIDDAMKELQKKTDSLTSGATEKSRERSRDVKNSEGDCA

SMILES	IC50 [1]	delta Tm Staurosporine positive control [2]	ΔTm [2]	delta Tm Staurosporine positive control [3]	ΔTm [3]	delta Tm Staurosporine positive control [4]	ΔTm [4]	delta Tm Staurosporine positive control [5]	ΔTm [5]	inhibition [6] [%]	inhibition [7] [%]	inhibition [8] [%]
CCC[C@@H]1CNCc2c1[nH]c(=O)c(C#N)c2N1CCC2(CC1)CC2	> 10 µM (not active)	10.9	-0.415	3.56	-0.19	4.78	-0.0442	14	0.234	8.63	2.21	16.9
CCC[C@H]1CNCc2c1[nH]c(=O)c(C#N)c2N1CCC2(CC1)CC2	0.015 µM (active)	10.9	-0.751	3.56	-0.182	4.78	-0.0815	14	0.0473	5.13	-6.99	4.16
